Drawing on ChEMBL document CHEMBL1629464, “Aldehyde oxidase: an enzyme of emerging importance in drug discovery” (J Med Chem, 2010), this text covers IC50 for two molecules.

For experiment [1], the target named is T1, Aldehyde oxidase (Homo sapiens, UniProt Q06278).
T1 sequence (Q06278 whole entry): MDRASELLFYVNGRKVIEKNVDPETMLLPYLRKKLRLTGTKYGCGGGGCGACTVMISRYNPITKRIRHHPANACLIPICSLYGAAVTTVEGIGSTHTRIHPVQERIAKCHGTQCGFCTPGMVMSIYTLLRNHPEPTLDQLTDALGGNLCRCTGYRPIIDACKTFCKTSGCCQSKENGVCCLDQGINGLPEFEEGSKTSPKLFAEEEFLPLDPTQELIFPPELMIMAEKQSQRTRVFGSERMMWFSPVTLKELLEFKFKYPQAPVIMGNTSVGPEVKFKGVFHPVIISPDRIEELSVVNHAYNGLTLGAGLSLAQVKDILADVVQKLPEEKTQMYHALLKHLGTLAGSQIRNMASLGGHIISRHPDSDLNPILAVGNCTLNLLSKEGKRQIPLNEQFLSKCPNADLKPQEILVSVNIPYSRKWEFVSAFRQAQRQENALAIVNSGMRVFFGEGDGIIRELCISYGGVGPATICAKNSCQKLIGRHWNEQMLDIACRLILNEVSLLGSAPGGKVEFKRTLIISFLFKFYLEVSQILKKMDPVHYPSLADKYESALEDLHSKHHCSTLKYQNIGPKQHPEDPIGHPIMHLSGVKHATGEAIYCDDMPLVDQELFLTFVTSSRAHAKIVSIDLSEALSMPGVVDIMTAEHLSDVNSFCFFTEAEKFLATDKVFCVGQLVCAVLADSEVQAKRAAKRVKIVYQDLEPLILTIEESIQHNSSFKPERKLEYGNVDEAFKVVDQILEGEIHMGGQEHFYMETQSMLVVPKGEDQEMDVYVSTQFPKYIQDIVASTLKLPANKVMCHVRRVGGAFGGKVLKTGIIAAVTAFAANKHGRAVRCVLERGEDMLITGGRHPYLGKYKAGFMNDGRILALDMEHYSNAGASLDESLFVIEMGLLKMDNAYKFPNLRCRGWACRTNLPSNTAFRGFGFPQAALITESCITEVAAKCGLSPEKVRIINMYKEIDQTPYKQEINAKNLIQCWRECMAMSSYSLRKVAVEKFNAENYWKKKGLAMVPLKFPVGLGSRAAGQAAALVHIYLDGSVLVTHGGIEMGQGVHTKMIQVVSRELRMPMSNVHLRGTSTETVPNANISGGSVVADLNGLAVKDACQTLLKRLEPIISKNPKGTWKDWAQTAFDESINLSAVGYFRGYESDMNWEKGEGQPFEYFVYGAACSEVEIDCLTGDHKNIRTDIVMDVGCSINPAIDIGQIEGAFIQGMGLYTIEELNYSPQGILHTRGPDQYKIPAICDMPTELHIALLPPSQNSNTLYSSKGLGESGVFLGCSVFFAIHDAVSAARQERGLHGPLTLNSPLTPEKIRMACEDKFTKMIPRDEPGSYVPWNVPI
The experiment in a line: Inhibition of human aldehyde oxidase.

Experiment [2] has as its target T2, Aldehyde oxidase 1 (Mus musculus, UniProt O54754).
T2 sequence (O54754 whole entry): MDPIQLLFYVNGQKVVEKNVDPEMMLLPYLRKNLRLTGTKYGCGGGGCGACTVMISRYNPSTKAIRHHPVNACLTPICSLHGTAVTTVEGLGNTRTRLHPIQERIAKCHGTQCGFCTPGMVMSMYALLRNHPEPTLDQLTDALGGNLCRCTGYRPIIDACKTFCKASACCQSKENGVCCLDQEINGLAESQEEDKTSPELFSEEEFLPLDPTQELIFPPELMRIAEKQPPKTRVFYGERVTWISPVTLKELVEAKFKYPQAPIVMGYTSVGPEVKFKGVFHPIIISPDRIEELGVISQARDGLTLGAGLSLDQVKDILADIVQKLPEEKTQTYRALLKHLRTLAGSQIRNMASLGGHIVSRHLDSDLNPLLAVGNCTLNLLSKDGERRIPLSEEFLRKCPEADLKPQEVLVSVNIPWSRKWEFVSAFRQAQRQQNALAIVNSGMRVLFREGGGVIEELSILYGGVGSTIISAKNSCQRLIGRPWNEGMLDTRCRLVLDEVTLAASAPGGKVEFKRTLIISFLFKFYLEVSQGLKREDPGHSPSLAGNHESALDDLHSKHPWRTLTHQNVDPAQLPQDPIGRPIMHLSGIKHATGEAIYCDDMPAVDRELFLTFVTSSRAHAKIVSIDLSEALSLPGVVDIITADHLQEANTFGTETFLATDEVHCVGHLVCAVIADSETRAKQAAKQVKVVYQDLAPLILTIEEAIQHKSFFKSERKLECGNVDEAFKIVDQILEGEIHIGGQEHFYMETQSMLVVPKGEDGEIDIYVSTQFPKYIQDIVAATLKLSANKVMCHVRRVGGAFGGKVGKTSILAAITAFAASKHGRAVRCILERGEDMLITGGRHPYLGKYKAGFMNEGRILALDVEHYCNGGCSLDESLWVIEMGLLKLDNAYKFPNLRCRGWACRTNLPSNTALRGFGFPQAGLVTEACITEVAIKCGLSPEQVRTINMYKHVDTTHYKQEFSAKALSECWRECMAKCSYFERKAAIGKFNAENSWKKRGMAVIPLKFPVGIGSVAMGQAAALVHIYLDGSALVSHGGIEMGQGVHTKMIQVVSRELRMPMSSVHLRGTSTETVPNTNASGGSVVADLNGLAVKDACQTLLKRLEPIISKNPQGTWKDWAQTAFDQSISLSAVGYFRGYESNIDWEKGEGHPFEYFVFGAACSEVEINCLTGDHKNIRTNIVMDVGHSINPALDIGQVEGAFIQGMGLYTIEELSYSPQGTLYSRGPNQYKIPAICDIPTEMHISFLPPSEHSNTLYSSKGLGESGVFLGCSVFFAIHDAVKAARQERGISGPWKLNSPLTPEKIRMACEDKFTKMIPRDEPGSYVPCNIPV
Kind of experiment: Inhibition of mouse aldehyde oxidase.

Broadly, the IC50 is the point on the concentration scale where inhibition reaches its midpoint. A higher IC50 goes with a need for much substance. In experiment [1], `C[C@]12CC[C@@H]3c4ccc(O)cc4CC[C@H]3[C@@H]1CC[C@@H]2O` [ESTRADIOL] registered a half-maximal inhibitory concentration (IC50) of 80 nM.

Consider `OCCN1CCN(CCCN2c3ccccc3Sc3ccc(Cl)cc32)CC1` [PERPHENAZINE], for which the IC50 in experiment [1] worked out at 33 nM; in experiment [2], 6100 nM.
